# Measurements as given in ChEMBL document CHEMBL1201862, “PubChem BioAssay data set” (2004).
#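 Dose response: 5 concentrations. Exposure: 48 h. Format: 96-well plates. Endpoint: linear interpolation; highest concentration if not reached. GI50 = concentration required for 50% inhibition of growth.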 The source made the active and inactive calls. No stated cut-off is given here; in the data, active = GI50 up to about 1.1 µM and inactive = higher.
# Tests used:
# Assay in all cases: DTP human tumour cell line panel, 48 h
# [1] = system: HCC 2998
# [2] = system: COLO 205
# [3] = system: UACC-257
# [4] = system: NCI-H460
# [5] = system: SK-MEL-28
# [6] = system: MDA-MB-231
# [7] = system: BT-549
# [8] = system: UO-31
# [9] = system: CAKI-1
# [10] = system: KM12
# [11] = system: PC-3
# [12] = system: NCI/ADR-RES
# [13] = system: 786-0
# [14] = system: OVCAR-3
# [15] = system: SF-295
# [16] = system: A498
# [17] = system: SF-539
# [18] = system: SW-620
# [19] = system: SK-MEL-5
# [20] = system: HOP-62
# [21] = system: M14
# [22] = system: NCI-H226
# [23] = system: A549
# [24] = system: ACHN
# [25] = system: SNB-75
# [26] = system: UACC-62
# [27] = system: DU-145
# [28] = system: OVCAR-8
# [29] = system: SN12C
# [30] = system: OVCAR-5
# [31] = system: MDA-N
# [32] = system: EKVX
# [33] = system: U-251
# [34] = system: HCT-15
# [35] = system: HCT-116
# [36] = system: SR
# [37] = system: SNB-19
# [38] = system: OVCAR-4
# [39] = system: LOX IMVI
# [40] = system: Hs-578T
# [41] = system: MCF7
# [42] = system: HT-29
# [43] = system: TK-10
# [44] = system: Malme-3M
# [45] = system: MDA-MB-435
# [46] = system: SF-268
# [47] = system: K562
# [48] = system: NCI-H23
# [49] = system: MOLT-4
# [50] = system: RPMI-8226
# [51] = system: IGROV-1
# [52] = system: T47D
# [53] = system: RXF 393
# [54] = system: HOP-92
# [55] = system: HL-60
# [56] = system: NCI-H522
# [57] = system: CCRF-CEM
structure (smiles),measurement,setting,value
CC1=CCC[C@H]2[C@](C)(CC3=CC(=O)C(Sc4ccccc4)=CC3=O)[C@@H](C)CC[C@]12C,GI50,[1],20.4 µM (inactive)
same,GI50,[2],14.5 µM (inactive)
same,GI50,[3],15.9 µM (inactive)
same,GI50,[4],20 µM (inactive)
same,GI50,[5],20.9 µM (inactive)
same,GI50,[6],21.4 µM (inactive)
same,GI50,[7],19.5 µM (inactive)
same,GI50,[8],15.7 µM (inactive)
same,GI50,[9],17.1 µM (inactive)
same,GI50,[10],41.6 µM (inactive)
same,GI50,[11],23 µM (inactive)
same,GI50,[12],17.1 µM (inactive)
same,GI50,[13],18.2 µM (inactive)
same,GI50,[14],16.6 µM (inactive)
same,GI50,[15],17.3 µM (inactive)
same,GI50,[16],19.9 µM (inactive)
same,GI50,[17],19.8 µM (inactive)
same,GI50,[18],16.9 µM (inactive)
same,GI50,[19],17.2 µM (inactive)
same,GI50,[20],16.9 µM (inactive)
same,GI50,[21],16.7 µM (inactive)
same,GI50,[22],14.7 µM (inactive)
same,GI50,[23],17.5 µM (inactive)
same,GI50,[24],19.2 µM (inactive)
same,GI50,[25],20.4 µM (inactive)
same,GI50,[26],21.7 µM (inactive)
same,GI50,[27],22.5 µM (inactive)
same,GI50,[28],13.6 µM (inactive)
same,GI50,[29],17.7 µM (inactive)
same,GI50,[30],17.1 µM (inactive)
same,GI50,[31],18.5 µM (inactive)
same,GI50,[32],20.2 µM (inactive)
same,GI50,[33],18.1 µM (inactive)
same,GI50,[34],19.2 µM
same,GI50,[35],16.6 µM (inactive)
same,GI50,[36],21.8 µM (inactive)
same,GI50,[37],20.5 µM (inactive)
same,GI50,[38],19.7 µM (inactive)
COC(=O)c1c(C)cccc1C1CN=NC12Cc1ccc(C)c(C)c1C2=O (stereo unspecified),GI50,[1],23.5 µM (inactive)
same,GI50,[3],26.2 µM (inactive)
same,GI50,[4],22.8 µM (inactive)
same,GI50,[39],3.21 µM (inactive)
same,GI50,[40],37.7 µM (inactive)
same,GI50,[5],> 100 µM (inactive)
same,GI50,[41],24.4 µM (inactive)
same,GI50,[6],39.4 µM (inactive)
same,GI50,[42],25.7 µM (inactive)
same,GI50,[8],42.4 µM (inactive)
same,GI50,[9],> 100 µM (inactive)
same,GI50,[10],34.3 µM (inactive)
same,GI50,[12],15.2 µM (inactive)
same,GI50,[13],51.3 µM (inactive)
same,GI50,[14],32.4 µM (inactive)
same,GI50,[43],> 100 µM (inactive)
same,GI50,[15],42.7 µM (inactive)
same,GI50,[44],28.6 µM (inactive)
same,GI50,[16],36.3 µM (inactive)
same,GI50,[17],68.9 µM (inactive)
same,GI50,[18],33.4 µM (inactive)
same,GI50,[45],31.4 µM (inactive)
same,GI50,[46],49.4 µM (inactive)
same,GI50,[20],77.1 µM (inactive)
same,GI50,[21],30.5 µM (inactive)
same,GI50,[47],18.2 µM (inactive)
same,GI50,[22],44.6 µM (inactive)
same,GI50,[23],18.2 µM (inactive)
same,GI50,[24],27.2 µM (inactive)
same,GI50,[48],46.5 µM (inactive)
same,GI50,[49],12.2 µM (inactive)
same,GI50,[25],96.4 µM (inactive)
same,GI50,[50],9.84 µM (inactive)
same,GI50,[26],15.3 µM (inactive)
same,GI50,[27],54.6 µM (inactive)
same,GI50,[28],27.1 µM (inactive)
same,GI50,[51],46.2 µM (inactive)
same,GI50,[52],3.2 µM (inactive)
same,GI50,[53],20.9 µM (inactive)
same,GI50,[29],50 µM (inactive)
same,GI50,[30],> 100 µM (inactive)
same,GI50,[54],28.6 µM (inactive)
same,GI50,[31],45.2 µM (inactive)
same,GI50,[32],12.2 µM (inactive)
same,GI50,[33],35.2 µM (inactive)
same,GI50,[34],23.2 µM
same,GI50,[55],8.59 µM (inactive)
same,GI50,[35],14.8 µM (inactive)
same,GI50,[36],16.6 µM (inactive)
same,GI50,[56],12.9 µM (inactive)
same,GI50,[57],24.3 µM (inactive)
same,GI50,[37],50.9 µM (inactive)
same,GI50,[38],24.9 µM (inactive)
